From paper PMC10321576, “Cyclic peptides target the aromatic cage of a PHD-finger reader domain to modulate epigenetic protein function” (Chemical Science, 2023) come the findings set out here.

One experiment deals with T1, KDM7B PHD (Homo sapiens, UniProt Q9UPP1).
T1 construct: KDM7B 1-66; made in house
T1 sequence (Q9UPP1 1-66 isoform Q9UPP1-2): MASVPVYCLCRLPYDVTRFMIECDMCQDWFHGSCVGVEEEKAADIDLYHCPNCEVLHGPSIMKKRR
Description: BLI binding. The note with it: read-out: BLI KD, KDM7B PHD-finger. The text has this: Figure S2. BLI for KDM7 proteins with cyclic peptides.
BLI traces for b inding to KDM7 protein domains immobilised by C-terminal His -tag on Ni -NTA
biosensors, against cyclic peptides. Response trace for each peptide concentration is represented by
a different colour, with the fitted curves overlaid in black.
concentration plotted, with 2-fold dilutions thereafter. Dual domain = PHD+JmjC. […]
against KDM7 and other protein domains. t1/2 = half life (0.693 / Koff)
(1 picture or pasted object on this page, not shown here)
Background: BLI is a label-free optical method that tracks binding on a fibre tip over time.

A further experiment concerns the target T2, KDM7B PHD-finger (Homo sapiens, UniProt Q9UPP1).
T2 construct: KDM7B 1-66; His-tag (C); made in house
T2 sequence (Q9UPP1 1-66 isoform Q9UPP1-2): T1 sequence (Q9UPP1 1-66 isoform Q9UPP1-2)
Description: Protein NMR affinity assessment. The format is binding. The settings on record: read-out: NMR pKD, KDM7B PHD-finger (converted).

Another experiment has as its system full-length KDM7B. Description: Pull-down from transfected HEK293T nuclear lysates. The format is binding. The note with it: 100-fold excess competitor. Here is the method:
HEK293T cells were transiently transfected with either a full-length wild-type KDM7B, or an aromatic cage inactivating mutant KDM7B (Y14A, W29A).[20]
Capture was performed with 1 μM probe incubated in pre-cleared lysate, recovered with streptavidin-conjugated magnetic beads, then washed and eluted by heating in denaturing solution. 100-fold excess OC9 or OC9 V10A were used as competitors. […] The upper left quadrant indicates >5-fold difference in recovered protein (based on T-test difference of mean log 2 (LFQ) values) and p-value threshold <0.05.

Structures are written as SMILES. Peptide text beside a SMILES is read from it.

As to `CC(C)C[C@@H]1NC(=O)[C@H](Cc2ccc(O)cc2)NC(=O)[C@H](Cc2ccc(O)cc2)NC(=O)CSC[C@@H](C(N)=O)NC(=O)[C@H]([C@@H](C)O)NC(=O)[C@H](CCCNC(=N)N)NC(=O)[C@H](Cc2ccccc2)NC(=O)[C@@H](C(C)C)NC(=O)[C@H](CO)NC(=O)[C@@H]2CCCN2C(=O)[C@H](Cc2ccc(O)cc2)NC(=O)[C@@H]2CCCN2C(=O)[C@H](Cc2c[nH]cn2)NC(=O)[C@H]([C@@H](C)O)NC1=O` [OC9 V10DV] (HELM PEPTIDE1{[O=C(C[*:3])[*:2]].Y.Y.L.T.H.P.Y.P.S.[dV].F.R.T.C.[am]}$PEPTIDE1,PEPTIDE1,1:R3-15:R3$$$V2.0; C-terminus assumed), the results for the Kd at KDM7B PHD and on KDM7B PHD-finger were more than 10 µM and more than 501 µM, respectively.

Take `CC(C)C[C@@H]1NC(=O)[C@H](Cc2ccc(O)cc2)NC(=O)[C@H](Cc2ccc(O)cc2)NC(=O)CSC[C@@H](C(N)=O)NC(=O)[C@H]([C@@H](C)O)NC(=O)[C@H](CCCNC(=N)N)NC(=O)[C@H](Cc2ccccc2)NC(=O)[C@H](C)NC(=O)[C@H](CO)NC(=O)[C@@H]2CCCN2C(=O)[C@H](Cc2ccc(O)cc2)NC(=O)[C@@H]2CCCN2C(=O)[C@H](Cc2c[nH]cn2)NC(=O)[C@H]([C@@H](C)O)NC1=O` [V10A] (HELM PEPTIDE1{[O=C(C[*:3])[*:2]].Y.Y.L.T.H.P.Y.P.S.A.F.R.T.C.[am]}$PEPTIDE1,PEPTIDE1,1:R3-15:R3$$$V2.0; C-terminus assumed): in the experiment on full-length KDM7B, the “competition of OC9-Bt pull-down of KDM7B” value is recorded as “did not reduce recovery so substantially”.
